In patent US12286451B2, “Borate ester complexes of α-hydroxy carboxylic acids and their conjugate base buffers” (Medtech Products Inc., priority 2020, dated 2025):

Experiments:
[1] = Equivalence titration (0.5 milliequivalent) of reaction products with 0.1N sodium hydroxide; type: physicochemical; details: equivalent titration; for pKa: volume adjusted to 0.5 milliequivalent; for Capacity (buffer capacity): titrant required to raise the pH one unit from the pKa value
Procedure: (§1) Reaction products of boric acid and α-hydroxy carboxylic acids were prepared by diluting pre-made stock solution of 0.4M boric acid and 0.4M, 0.6M, and 0.8M α-hydroxy carboxylic acid. [table] Each reaction mixture was allowed to mix for a minimum of two hours before subsequent titration with 0.1N certified sodium hydroxide solution. Two sets of titrations were performed. The first set of titrations, molar titration, 5.0 ml of each solution is titrated to accurately determine end point and the pKa and pH at half of the end point. The second set of titrations, equivalence titration, solution volumes were adjusted to 0.5 milliequivalent and the buffer capacity determined. For simplicity, buffer capacity is reported as the milliequivalents of titrant required to raise the pH one unit from the pKa value. An exception was made for the 1:3 test ratio in which free α-hydroxy acid and the boric acid ester complex could not be distinguished between.

[2] = Molar titration of boric acid/α-hydroxy acid reaction products with 0.1N sodium hydroxide; type: physicochemical; details: for pKa: 5.0 ml solution, pH at half of the end point; for Capacity (buffer capacity): titrant required to raise the pH one unit from the pKa value
Procedure: as §1

SMILES	pKa [1]	Capacity (buffer capacity) [1] [milliequivalents]	pKa [2]	Capacity (buffer capacity) [2] [milliequivalents]
O=C(O)CO [Glycolic Acid 0, Glycolic Acid]	3.9	13	3.9	13
CC(O)C(=O)O (stereo not drawn) [Lactic Acid 0, Lactic Acid]	4	11	4	11
O=C(O)CC(O)(CC(=O)O)C(=O)O [Citric Acid 0, Citric Acid]	4.3	39	4.3	39
